System: library of 8,380 IKZF3 degrons (ZF-eGFP/mCherry reporter) in Jurkat cells
Test: Pooled library screen (FACS, NGS, limma voom LogFC of positive vs negative read counts)
Assay type: cell-based, human
How it was run: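 Degron enrichment was scored by amplicon NGS of gDNA from GFP-low versus other mCherry+ cells, at >600× coverage across three independent transductions. Sorting followed 18 h exposure at 37 °C to thalidomide analog or DMSO, which set the gate; dead cells were excluded with DAPI. Single-copy integration used MOI <0.3.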

Compound: O=C1CCC(N2C(=O)c3ccc(N4CCOCC4)cc3C2=O)C(=O)N1 (centres unmarked) [B03]
- B03_logFC (Degron-ID 115, SEQ ID NO 3968, 46F_47A_49E_50V_52G_53A_54S_55F_67L): 2.732
- B03_logFC (Degron-ID 120, SEQ ID NO 4031, 46F_47A_49N_50I_52G_53A_54A_55F_67L): 2.638
- B03_logFC (Degron-ID 315, SEQ ID NO 3989, 46F_47C_49E_50I_52G_53A_54S_55F_67L): 2.703
- B03_logFC (Degron-ID 372, SEQ ID NO 3966, 46F_47C_49N_50I_52G_53A_54P_55F_67L): 2.733
- B03_logFC (Degron-ID 433, SEQ ID NO 4021, 46F_47C_49P_50I_52G_53A_54Q_55F_67L): 2.656
- B03_logFC (Degron-ID 434, SEQ ID NO 3957, 46F_47C_49P_50I_52G_53A_54R_55F_67L): 2.746
- B03_logFC (Degron-ID 435, SEQ ID NO 3984, 46F_47C_49P_50I_52G_53A_54S_55F_67L): 2.71
- B03_logFC (Degron-ID 977, SEQ ID NO 4017, 46F_47F_49D_50I_52G_53A_54V_55F_67L): 2.662
- B03_logFC (Degron-ID 1011, SEQ ID NO 3988, 46F_47F_49D_50V_52G_53A_54N_55F_67L): 2.704
- B03_logFC (Degron-ID 1015, SEQ ID NO 3971, 46F_47F_49D_50V_52G_53A_54S_55F_67L): 2.728
- B03_logFC (Degron-ID 1065, SEQ ID NO 3981, 46F_47F_49E_50V_52G_53A_54G_55F_67L): 2.716
- B03_logFC (Degron-ID 1080, SEQ ID NO 4003, 46F_47F_49N_50I_52G_53A_54A_55F_67L): 2.68
- B03_logFC (Degron-ID 1081, SEQ ID NO 4001, 46F_47F_49N_50I_52G_53A_54C_55F_67L): 2.686
- B03_logFC (Degron-ID 1097, SEQ ID NO 3956, 46F_47F_49N_50I_52G_53A_54V_55F_67L): 2.747
- B03_logFC (Degron-ID 1183, SEQ ID NO 4013, 46F_47F_49P_50V_52G_53A_54E_55F_67L): 2.668
- B03_logFC (Degron-ID 1188, SEQ ID NO 4025, 46F_47F_49P_50V_52G_53A_54K_55F_67L): 2.644
- B03_logFC (Degron-ID 1197, SEQ ID NO 3982, 46F_47F_49P_50V_52G_53A_54V_55F_67L): 2.716
- B03_logFC (Degron-ID 1267, SEQ ID NO 3977, 46F_47G_49E_50I_52G_53A_54I_55F_67L): 2.719
- B03_logFC (Degron-ID 1273, SEQ ID NO 4024, 46F_47G_49E_50I_52G_53A_54Q_55F_67L): 2.644
- B03_logFC (Degron-ID 1314, SEQ ID NO 3964, 46F_47G_49E_50V_52G_53A_54R_55F_67L): 2.737
- B03_logFC (Degron-ID 1393, SEQ ID NO 4023, 46F_47G_49P_50I_52G_53A_54Q_55F_67L): 2.648
- B03_logFC (Degron-ID 1433, SEQ ID NO 4022, 46F_47G_49P_50V_52G_53A_54Q_55F_67L): 2.653
- B03_logFC (Degron-ID 1513, SEQ ID NO 4030, 46F_47H_49E_50I_52G_53A_54Q_55F_67L): 2.639
- B03_logFC (Degron-ID 1515, SEQ ID NO 4006, 46F_47H_49E_50I_52G_53A_54S_55F_67L): 2.675
- B03_logFC (Degron-ID 1555, SEQ ID NO 4029, 46F_47H_49E_50V_52G_53A_54S_55F_67L): 2.639
- B03_logFC (Degron-ID 1621, SEQ ID NO 4027, 46F_47H_49P_50I_52G_53A_54C_55F_67L): 2.643
- B03_logFC (Degron-ID 1751, SEQ ID NO 3952, 46F_47I_49E_50I_52G_53A_54N_55F_67L): 2.753
- B03_logFC (Degron-ID 1754, SEQ ID NO 4020, 46F_47I_49E_50I_52G_53A_54R_55F_67L): 2.656
- B03_logFC (Degron-ID 1755, SEQ ID NO 3970, 46F_47I_49E_50I_52G_53A_54S_55F_67L): 2.728
- B03_logFC (Degron-ID 1785, SEQ ID NO 4016, 46F_47I_49E_50V_52G_53A_54G_55F_67L): 2.664
- B03_logFC (Degron-ID 1865, SEQ ID NO 4014, 46F_47I_49P_50I_52G_53A_54G_55F_67L): 2.667
- B03_logFC (Degron-ID 1871, SEQ ID NO 3960, 46F_47I_49P_50I_52G_53A_54N_55F_67L): 2.742
- B03_logFC (Degron-ID 1913, SEQ ID NO 3962, 46F_47I_49P_50V_52G_53A_54Q_55F_67L): 2.739
- B03_logFC (Degron-ID 1915, SEQ ID NO 3965, 46F_47I_49P_50V_52G_53A_54S_55F_67L): 2.736
- B03_logFC (Degron-ID 2392, SEQ ID NO 4011, 46F_47L_49P_50V_52G_53A_54P_55F_67L): 2.671
- B03_logFC (Degron-ID 2957, SEQ ID NO 3986, 46F_47Q_49E_50I_52G_53A_54V_55F_67L): 2.708
- B03_logFC (Degron-ID 2981, SEQ ID NO 4000, 46F_47Q_49E_50V_52G_53A_54C_55F_67L): 2.687
- B03_logFC (Degron-ID 2996, SEQ ID NO 4026, 46F_47Q_49E_50V_52G_53A_54T_55F_67L): 2.643
- B03_logFC (Degron-ID 2997, SEQ ID NO 3951, 46F_47Q_49E_50V_52G_53A_54V_55F_67L): 2.756
- B03_logFC (Degron-ID 3073, SEQ ID NO 3979, 46F_47Q_49P_50I_52G_53A_54Q_55F_67L): 2.718
- B03_logFC (Degron-ID 3076, SEQ ID NO 3959, 46F_47Q_49P_50I_52G_53A_54T_55F_67L): 2.742
- B03_logFC (Degron-ID 3115, SEQ ID NO 3978, 46F_47Q_49P_50V_52G_53A_54S_55F_67L): 2.718
- B03_logFC (Degron-ID 3432, SEQ ID NO 3998, 46F_47S_49E_50I_52G_53A_54P_55F_67L): 2.688
- B03_logFC (Degron-ID 3540, SEQ ID NO 3999, 46F_47S_49P_50I_52G_53A_54A_55F_67L): 2.688
- B03_logFC (Degron-ID 3791, SEQ ID NO 4035, 46F_47T_49P_50I_52G_53A_54N_55F_67L): 2.632
- B03_logFC (Degron-ID 3833, SEQ ID NO 4034, 46F_47T_49P_50V_52G_53A_54Q_55F_67L): 2.635
- B03_logFC (Degron-ID 3835, SEQ ID NO 3974, 46F_47T_49P_50V_52G_53A_54S_55F_67L): 2.722
- B03_logFC (Degron-ID 3953, SEQ ID NO 3961, 46F_47V_49E_50V_52G_53A_54Q_55F_67L): 2.742
- B03_logFC (Degron-ID 4065, SEQ ID NO 4015, 46F_47V_49P_50V_52G_53A_54G_55F_67L): 2.665
- B03_logFC (Degron-ID 4087, SEQ ID NO 3963, 46F_47W_49D_50I_52G_53A_54I_55F_67L): 2.738

Reference: patent US20260284208A1, “SYSTEM” (Oxford University Innovation Limited, priority 2023, published 2026)
